Results: publication PMC10927554, “An improved pathway for autonomous bioluminescence imaging in eukaryotes” (Nature Methods, 2024)

Biological target: T1, nnLuz (Neonothopanus nambi, UniProt A0A3G9JYH7, I3S/N4T/F11L/I63T/T99P/T192S/A199P)
T1 construct: gene luz; HiBiT-tag fusion, expressed in yeast Pichia pastoris GS115, clarified lysate; codon-optimized synthetic gene
Experiment: luminescence, Michaelis-Menten fit, HiBiT-normalized
Type: biochemical
Conditions: yeast lysate; 0.2 M sodium phosphate, 0.5 M Na2SO4, pH 8; Fln 0.0244-50 uM; DDM, thioglycolic acid; variant nnLuz_v4

T1 sequence (A0A3G9JYH7 whole entry I3S/N4T/F11L/I63T/T99P/T192S/A199P, the tested form may be a part): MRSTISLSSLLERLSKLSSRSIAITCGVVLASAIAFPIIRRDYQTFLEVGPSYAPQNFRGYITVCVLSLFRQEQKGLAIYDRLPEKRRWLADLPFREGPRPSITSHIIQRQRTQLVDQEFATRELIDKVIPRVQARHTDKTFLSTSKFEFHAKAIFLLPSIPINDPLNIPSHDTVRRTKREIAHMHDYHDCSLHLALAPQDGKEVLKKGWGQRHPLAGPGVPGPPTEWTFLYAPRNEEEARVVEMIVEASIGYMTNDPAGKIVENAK

O=c1oc(/C=C/c2ccc(O)c(O)c2)cc(O)c1O [Fln, fungal luciferin]
KM: Yeast strains expressing nnLuz_wt/v4–HiBIT fusions were inoculated into YPD medium
